Assay results: US20190133997A1, “ARTEMISININ ANALOG, AND USE, METHOD, AND COMPOSITION FOR PROMOTING LIPID CATABOLISM AND IMPROVING SUGAR METABOLISM” (FUDAN UNIVERSITY, priority 2016, published 2019)

Key:
[1] = system: 3T3-L1 white preadipocytes; assay: Artemether-induced browning of 3T3-L1 white preadipocytes during differentiation (morphology, UCP1 mRNA by Real time qPCR); assay type: cell-based; settings: vs control, concentration-dependent tendency
Description: 2.5×10^5 3T3-L1 white preadipocytes were seeded in a 3.5 cm cell culture dish, and cultured for 3 days in a maintenance medium. Cells proliferated to contact inhibition. 48 hours after the contact inhibition was reached, the medium was changed to induced differentiation medium, and the induced differentiation mixture including 0.5 mMol/L 3-isobutyl-1-methylxanthine (Mix), 1 μMol/L dexamethasone (Dex) and 1 μg/ml insulin (Insulin) was added. The induced differentiation mixture is referred to as MDI for short. The day of adding MDI was defined as Day 0 of differentiation. After 2 days of culture in the above medium, fresh induced differentiation medium was replaced, and 1 μg/ml insulin was added to the medium. After another 2 days of culture, the fresh induced differentiation medium was replaced, and the medium was changed every other day until the culture was differentiated to Day 8. […]
3T3-L1 differentiated to mature was induced in a 3.5 cm culture dish, with the method of differentiation referring to Method 1.4.1. […] The precipitate was dissolved in 60 μl DEPC water, and quantified by Colibri Tepertec and stored at −80° C. […]
The relative amount of mRNA was calculated according to the AACT method, with 18S being used as an internal reference. […]

[2] = system: obese mice induced by high-fat diet; assay: Intraperitoneal artemether, random blood glucose, glucose and insulin tolerance in high-fat diet obese mice; assay type: in vivo, Male C57BL/6J mice; settings: intraperitoneal 20 mg/kg twice a week, eight weeks
Description: (§1) The mice were breeded in the SPF animal laboratory of the Laboratory Animal Center of Fudan University at a room temperature of 21° C.-23° C. with a 12-hour light/dark cycle. […] When the mice were grown to 8-week old, they were randomly divided into a control group and an administration group, with 8 mice in each group. While the mice were fed with a high-fat diet, artemether was injected intraperitoneally. Artemether for intraperitoneal injection was stored at 4° C. in coconut oil at a storage concentration of 6 mg/ml (20 mMol/L), and protected from light. Mice in administration group were injected with artemether at a dose of 20 mg/kg weight. Administration was twice a week for eight weeks.
The mice were fasted for 12-16 hours and injected intraperitoneally with glucose injection at a dose of […]. At 0 min, 30 min, 60 min, 90 min, and 120 min after injection, blood was collected from the tail vein, and blood glucose was measured with OneTouch ExtraEasy glucometer and OneTouch ExtraEasy blood glucose test strips and the results were recorded.
Insulin was injected intraperitoneally at a dose of 0.75 U/kg weight. At 0 min, 15 min, 30 min, 45 min and 60 min after injection, blood was collected from the tail vein, and blood glucose was measured.
The mice were anesthetized with 10% chloral hydrate and blood was taken from the orbit. The whole blood was centrifuged at 300 rpm for 5 min at 4° C. Serum was taken and the blood glucose levels were measured by automatic biochemical analyzer and calibrator for blood glucose Cfas and kit (Roche).

[3] = system: obese mice induced by high-fat diet; assay: Intraperitoneal artemether, fatty liver in obese mice induced by high-fat diet (HE staining); assay type: in vivo, Male C57BL/6J mice; settings: intraperitoneal 20 mg/kg twice a week, eight weeks
Description: as §1, with “weeks. The mice were sacrificed by cervical dislocation, and liver tissues of mice were removed and fixed. The histological analysis for liver was commissioned by Shanghai Saige Biotech Co., Ltd., and the histological analysis process included tissue fixation, paraffin embedding, sectioning and HE staining.” for “weeks.”

[4] = system: ob/ob mice; assay: Intraperitoneal artemether, fatty liver in diabetic ob/ob mice; assay type: in vivo, Male ob/ob mice; settings: intraperitoneal 20 mg/kg twice a week, eight weeks
Description: Ob/ob mice were breeded in the SPF animal laboratory of the Laboratory Animal Center of Fudan University at a room temperature of 21° C.-23° C. with a 12-hour light/dark cycle. When the mice were grown to 4-week old, they were randomly divided into a control group and an administration group, with 4 mice in each group. Mice in administration group were injected intraperitoneally with artemether. Artemether for intraperitoneal injection was stored at 4° C. in coconut oil at a storage concentration of 6 mg/ml (20 mMol/L), and protected from light. Ob/ob mice in administration group were injected with artemether at a dose of 20 mg/kg weight. Administration was twice a week for eight weeks. The mice were sacrificed by cervical dislocation, and liver tissues of mice were removed, fixed and paraffin embedded. The histological analysis was commissioned by Shanghai Saige Biotech Co., Ltd.

**Q.** How did the “mRNA level of UCP1” value ([1]; 3T3-L1, different concentrations of ART, Real time qPCR, 18S reference) turn out when `CO[C@H]1O[C@@H]2O[C@@]3(C)CC[C@H]4[C@H](C)CC[C@@H]([C@H]1C)[C@@]24OO3` [artemether] was run?
**A.** significantly up-regulated

**Q.** And the “cell morphology of 3T3-L1” value ([1]; artemether 5, 10 or from Day 0 of differentiation to maturity)?
**A.** exhibited typical brown adipocyte-like characteristics

**Q.** What about the glucose tolerance [2] of the same molecule?
**A.** significantly better than that of mice in control group

**Q.** What about the insulin sensitivity [2] of the same molecule?
**A.** significantly better than that of mice in control group

**Q.** And the random blood glucose [2]?
**A.** significantly lower than that of mice in control group

**Q.** What about the “morphology of the liver cells” value [3] of the same molecule?
**A.** almost normal

**Q.** What about the “lipid in the liver (fatty liver)” value ([3]; control: obvious lipid accumulation) of the same molecule?
**A.** only a small amount of lipid

**Q.** And the “fatty liver of ob/ob mice (HE staining)” value [4]?
**A.** significantly relieved
